Legend:
Assay type in all cases: physicochemical
[1] = Batch extraction from simulated HLLW from the PUREX process; settings: 0.1 mol/L in TPH/1-octanol (90:10)
Excerpt: (§1) The feed solution used for the extraction tests is a simulated solution of an HLLW from the PUREX process, the composition of which is shown in Table 4. Table 4: Composition of the simulated HLLW-PUREX solution used for the extraction tests
(§2) The composition of the HLLW corresponds to a burn-up of 33 GWd/tHM, the generated volume of HLLW being 5000 1/t of fuel. The feed was spiked with ^241Am, ^244Cm, ^252Cf and ^152Eu. Oxalic acid and N-(2-hydroxyethyl)ethylenediaminotriacetate (HEDTA) were also added before the extraction tests.
(§3) 500 µL of the aqueous and organic phases were spiked with 10 µL of a tracer solution containing 241Am, 244Cm, 252Cf and ^152Eu, and were equilibrated for 10 minutes while they were stirred vigorously in a vortex stirrer. After the separation of the phases by centrifugation, 200 µL aliquots of each phase were taken for the determination of the concentration of ^241Am and ^152Eu using a high-purity germanium spectrometer system (EG&G Ortec). The nuclides ^241Am, ^244Cm and ^252Cf were measured by alpha spectrometry with an α-Analyst device of the company Canberra-Packard GmbH, Germany.
(§4) The concentrations of the stable elements were determined by mass spectrometry with an inductively coupled plasma source (ICP-MS) in a DRC Elan 6100 device of Perkin Elmer Sciex. The aqueous phase was measured directly after the appropriate dilution. The organic phase was analyzed after having mineralized the organic matter by microwave acid digestion and subsequent dilution.
(§5) The distribution coefficients were calculated for each element according to section C).
(§6) Extraction experiments were carried out with said simulated HLLW in a pure form and also adding oxalic acid and HEDTA to it.

[2] = Extraction capability at different nitric acid concentrations in the aqueous phase; settings: 0.1 mol/L in 1-octanol or TPH/1-octanol mixtures
Method: The organic solutions were prepared as indicated previously in section A). The aqueous solutions consisted of nitric acid solutions at different concentrations (0.06 mol/L, 0.11 mol/L, 0.65 mol/L, 1.0 mol/L, 3.1 mol/L and 6.7 mol/L) each of them spiked with 600 Bq of ^152Eu and 600 Bq of ^241Am. The nitric acid concentration of these solutions was determined by a potentiometric titration before and after the extraction equilibrium.
The organic solutions of the compound to be studied were equilibrated with the corresponding aqueous solution, according to the different nitric acid concentrations considered, as indicated previously in section B).
600 µL of equilibrated organic phase were contacted with 600 µL of the aqueous phase of the corresponding nitric acid concentration. […]
The influence of the concentration of aqueous nitric acid of the aqueous phase, from 0.05 mol/L to 7 mol/L, on the extraction of Am/Eu with compound 4 was studied in different TPH/1-octanol mixtures as solvent, and also in 100% 1-octanol. To that end, the distribution coefficients of Am(III) and Eu(III) were determined for compound 4 dissolved at 0.1 mol/L in 1-octanol and in the following TPH/1-octanol mixtures: 50:50, 75:25 and 90:10 by volume, for the following nitric acid concentrations of the solution containing Am(III)/Eu(III): 0.06 mol/L; 0.11 mol/L; 0.65 mol/L; 1.0 mol/L; 3.1 mol/L and 6.7 mol/L. […]

[3] = Batch extraction from simulated HLLW from the PUREX process; settings: 0.1 mol/L in TPH/1-octanol (90:10); remark: listed apart in the source
Excerpt: as §1, §2, §3, §4, §5
A 0.1 mol/L solution of compound 4 in the "TPH/1-octanol (90:10)%vol" mixture was prepared. Extraction experiments were carried out with said simulated HLLW in a pure form and also adding oxalic acid and HEDTA to it. These complexing agents have shown to be effective in the DIAMEX process for the complexing of Mo, Zr (H2C2O4) and Pd (HEDTA).

[4] = as above; settings: for Distribution coefficients Sr: 0.1 mol/L in TPH/1-octanol (90:10)
Method: as §1
The composition of the HLLW corresponds to a burn-up of 33 GWd/tHM, the generated volume of HLLW being 5000 1/t of fuel. […] Oxalic acid and N-(2-hydroxyethyl)ethylenediaminotriacetate (HEDTA) were also added before the extraction tests.
as §4, §5, §6, §6

[5] = Oxalic acid 0.2 mol/L, HEDTA 0.05 mol/L, TBP 0.5 mol/L
[6] = Oxalic acid 0.2 mol/L, HEDTA 0.05 mol/L, TBP No
[7] = Oxalic acid 0.3 mol/L, HEDTA 0.05 mol/L, TBP 0.5 mol/L
[8] = Oxalic acid 0.3 mol/L, HEDTA 0.05 mol/L, TBP No
[9] = Oxalic acid No, HEDTA No, TBP 0.5 mol/L
[10] = Oxalic acid No, HEDTA No, TBP No

2-Dioctylcarbamoylmethoxy-N-[3-[3-(2-dioctylcarbamoyl-methoxyacetylamino)propoxy]propyl]acetamide [Compound 18]
Distribution coefficients Cr [1, 5]: 0.006
Distribution coefficients Cu [1, 5]: 0.085
Distribution coefficients Fe [1, 5]: 0.001
Distribution coefficients Ni [1, 5]: 0.015
Distribution coefficients Cr [1, 6]: 0.006
Distribution coefficients Cu [1, 6]: 0.075
Distribution coefficients Fe [1, 6]: 0.001
Distribution coefficients Ni [1, 6]: 0.014
Distribution coefficients Cr [1, 7]: 0.006
Distribution coefficients Cu [1, 7]: 0.093
Distribution coefficients Fe [1, 7]: 0.009
Distribution coefficients Ni [1, 7]: 0.015
Distribution coefficients Cr [1, 8]: 0.006
Distribution coefficients Cu [1, 8]: 0.083
Distribution coefficients Fe [1, 8]: 0.001
Distribution coefficients Ni [1, 8]: 0.014
Distribution coefficients Cr [1, 9]: 0.006
Distribution coefficients Cu [1, 9]: 0.067
Distribution coefficients Fe [1, 9]: 0.001
Distribution coefficients Ni [1, 9]: 0.014
Distribution coefficients Cr [1, 10]: 0.006
Distribution coefficients Cu [1, 10]: 0.064
Distribution coefficients Fe [1, 10]: 0.001
Distribution coefficients Ni [1, 10]: 0.014

2-Dioctylcarbamoylmethoxy-N-[3-[(2-dioctylcarbamoyl-methoxy-acetylamino)methyl]benzyl]acetamide [Compound 4]
extraction capability at diluted nitric acid concentrations [2]: very low
Distribution coefficients Dy [3, 5]: 86
Distribution coefficients Sb [3, 5]: 0.012
Distribution coefficients Sn [3, 5]: 0.0087
Distribution coefficients Tb [3, 5]: 54
Distribution coefficients Te [3, 5]: 0.0012
Distribution coefficients Dy [3, 6]: 171
Distribution coefficients Sb [3, 6]: 0.011
Distribution coefficients Sn [3, 6]: 0.0076
Distribution coefficients Tb [3, 6]: 153
Distribution coefficients Te [3, 6]: 0.0014
Distribution coefficients Dy [3, 7]: 184
Distribution coefficients Sb [3, 7]: 0.011
Distribution coefficients Sn [3, 7]: 0.0072
Distribution coefficients Tb [3, 7]: 77
Distribution coefficients Te [3, 7]: 0.0011
Distribution coefficients Dy [3, 8]: 195
Distribution coefficients Sb [3, 8]: 0.012
Distribution coefficients Sn [3, 8]: 0.0092
Distribution coefficients Tb [3, 8]: 107
Distribution coefficients Te [3, 8]: 0.0012
Distribution coefficients Dy [3, 9]: 64
Distribution coefficients Sb [3, 9]: 0.011
Distribution coefficients Sn [3, 9]: 0.0089
Distribution coefficients Tb [3, 9]: 57
Distribution coefficients Te [3, 9]: 0.0012
Distribution coefficients Dy [3, 10]: 141
Distribution coefficients Sb [3, 10]: 0.012
Distribution coefficients Sn [3, 10]: 0.0073
Distribution coefficients Tb [3, 10]: 123
Distribution coefficients Te [3, 10]: 0.0011
factor by which the Sr distribution coefficient is lower than that obtained with TODGA [4]: 10
Dsr ([4]; 0.1 mol/L in TPH/1-octanol (90:10)%vol, summary of all conditions): < 0.13
Distribution coefficients Sr [4, 5]: 0.071
Distribution coefficients Sr [4, 6]: 0.110
Distribution coefficients Sr [4, 7]: 0.099
Distribution coefficients Sr [4, 8]: 0.132
Distribution coefficients Sr [4, 9]: 0.061
Distribution coefficients Sr [4, 10]: 0.071
